Earlier results, collected in patent publication US20170303537A1, “COMPOSITIONS OF A QUATERNARY AMMONIUM COMPOUND WITH A MONOCARBOXYLIC FATTY ACID” (OMS INVESTMENTS, INC., priority 2016, published 2017).

SMILES: CCCCCCCCC(=O)O [pelargonic acid]
- pKa: about 5
